Assay results: patent US20080199517A1, “Composition and a process thereof” (priority 2007, published 2008)

Test system: castrated male adolescent rats
Assay: Anabolic activity in castrated rats: organ weight
Format: in vivo, rats of Swiss Wistar strain
Details: castrated animals, result in words
Protocol: Male Adolescent rats of Swiss Wistar strain of body weight 55 gms are chosen for this experiment and are castrated. The castrated groups are divided into 2 groups. • 1. Control group castrated animals n=6 • 2. Drug treated castrated animals treated with test compound at 25 mg/kg n=6
Both the groups are fed ad libitum food and water and observed for 28 days. Their serum at the beginning of the experiment and at the end of the experiment are drawn and checked for Total testosterone, and free testosterone. The animals are sacrificed at the end of the experiment and seminal vesicle; ventral Prostate and Levator Ani are removed and weighed. These organ weights are compound with the control animals.

SMILES: CC(COC1OC(CO)C(O)C(O)C1O)C(C)CC1(O)CC2CC3C4CC=C5CC(OC6OC(CO)C(O)C(O)C6OC6OC(C)C(O)C(O)C6O)CCC5(C)C4CCC3(C)C2C1C (stereo not shown) [saponin of structural formula I]
- anabolic activity: does not showed any activity
